Source: patent US4122184A, “Benzimidazole insecticides” (priority 1977, dated 1978)

How the values were obtained:
[1] = system: Southern Corn Rootworm Adults; assay: Field trial, contact poison test; assay type: in vivo
Outline: (§1)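 Mortality after direct spraying was scored at 24, 48 and 72 hours where applicable, using a 0–9 rating tied to 10% bands. Plants bearing insects received atomized compound at 10 psi over a range of concentrations.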

[2] = system: Bean Leaf Beetle; assay: Field trial, contact poison test; assay type: in vivo
Outline: as §1

[3] = system: Red-Legged Grasshopper Adults; assay: Field trial, contact poison test; assay type: in vivo
Outline: as §1

[4] = system: Squash Bug Adults; assay: Field trial, contact poison test; assay type: in vivo; set-up: key: 0-9 rating: 0 = 0-10% mortality, 9 = 91-100% mortality
Outline: as §1

[5] = system: Bean Leaf Beetle; assay: Field trial, stomach poison test; assay type: in vivo
Outline: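 Leaves from infested plants sprayed (10 psi) or dipped in test compound at several concentrations, air-dried, then five or ten insects placed per dish, one or two replicates. Mortality scored 0 to 9 at 24, 48 and 72 h, averaged per concentration.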

[6] = system: Boll Weevil; assay: Field trial (first summer), topical; assay type: in vivo, Anthonomus grandis
Outline: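 Field trial from the first summer in which 1 µl of test solution holding a set number of micrograms of benzimidazole was applied topically to larvae or adult insects. Mortality at a given route and concentration was scored on a 0–9 scale.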

[7] = system: Milkweed Bug; assay: Milkweed Bug Test; assay type: in vivo, Oncopeltis fasciatus (Hemiptera); details: 48 h
Outline: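 Ten chilled adult milkweed bugs per cage sprayed with 5 ml test formulation at 10 psi, then fed and watered. Mortality, counting moribund as dead, scored 48 h after spraying; 500 ppm malathion as reference, unsprayed cages as controls.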

[8] = system: Melon Aphid; assay: Melon Aphid Test; assay type: in vivo, Aphis gossypii (Hemiptera); details: 24 h
Excerpt: Four blue hubbard squash seeds are planted per container in vermiculite and the containers watered from the bottom. After 6 days, the two weakest plants are cut off and one cotyledon and the primary leaves are removed from each of the two remaining plants. The remaining cotyledon is infested with 100 melon aphids from a stock colony by pinning the cotyledon against an aphid-infested squash cotyledon from the colony and allowing the aphids to transfer. After transfer, the colony leaf is removed. Forty-eight hours later, the infested leaves are sprayed to wetting with formulations containing graded amounts of the insecticide using a DeVilbiss atomizer at 10 psi held at 12-15 inches from the plant. Controls consist of two infested, unsprayed squash plants and two infested plants sprayed to wetting with a formulation containing 100 ppm malathion as a reference standard. The mortality is estimated 24 hours after spraying by observation using a 10 power dissecting microscope. The same rating scale is used as before.

[9] = system: Southern Armyworm; assay: Southern Armyworm Test; assay type: in vivo, Prodenia eridania (Lepidoptera); details: 48 h
Description: Ten uniform Southern armyworm larvae about 1-1.5 cm. in length, grown on Henderson lima beans, are placed on excized bean leaves in petri dishes. The bean leaves are obtained and sprayed with the insecticide in the same way as are the snap bean leaves in the Mexican bean beetle test. The reference standards in this instance are leaves sprayed with 5 ml. 100 ppm DDT solution. Mortality counts are made 48 hours after spraying and again moribund larvae are counted as dead. Missing larvae which have probably been eaten are considered alive. The same rating scale is used as in the Mexican bean beetle test.

[10] = system: Oriental Cockroach; assay: Oriental Roach Test; assay type: in vivo, Blatta orientalis (Orthoptera); details: 24 h
Outline: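 Ten late-instar (3-4 month) nymphs per cage, held at 70°-80° F., sprayed with 5 ml of insecticide formulation at a specified amount. Cockroaches kept unfed and unwatered; mortality counted 24 hours post-spray, with insects staying on the cage bottom after light shaking scored dead.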

[11] = system: Two-spotted Spider Mite; assay: Two-spotted Spider Mite test; assay type: in vivo, Tetranychus urticae (Acarina); details: 48 h
Description: The procedure in this test is the same as that in the previous aphid test, except that about 100 two-spotted spider mites from a stock colony raised on squash plants are transferred to a cut squash cotyledon. The mortality is estimated 48 hours after spraying. The same rating scale is used.

“mixture of phenyl 2,6-bis(trifluoromethyl)-4-nitro-1-benzimidazolecarboxylate and phenyl 2,5-bis(trifluoromethyl)-1-benzimidazolecarboxylate” was tested, and the average mortality rating ([1]; 25 ppm) was 0 (0-10 percent), the average mortality rating ([1]; 50 ppm) was 3 and the average mortality rating ([1]; 100 ppm) was 7. For the same compound, the average mortality rating ([2]; 25 ppm) was 0 (0-10 percent), the average mortality rating ([2]; 50 ppm) was 0 (0-10 percent) and the average mortality rating ([2]; 100 ppm) was 4. The average mortality rating ([3]; 25 ppm) was 1, the average mortality rating ([3]; 50 ppm) was 7 and the average mortality rating ([4]; 125 ppm) was 2. The average mortality rating ([4]; 250 ppm) was 2, the average mortality rating ([4]; 500 ppm) was 6 and the average mortality rating ([4]; 750 ppm) was 8. For the same compound, the average mortality rating ([5]; 10 ppm) was 1, the average mortality rating ([5]; 25 ppm) was 0 (0-10 percent) and the average mortality rating ([5]; 50 ppm) was 0 (0-10 percent). For the same compound, the insect mortality rating ([6]; .078125 μg/μl) was 9 (91-100 percent mortality), the mortality rating ([7]; 250 ppm) was 1 (11-20) and the mortality rating ([7]; 500 ppm) was 9 (91-100). For the same compound, the mortality rating ([7]; 1000 ppm) was 9 (91-100), the mortality rating ([8]; 25 ppm) was 0 (0-10) and the mortality rating ([8]; 50 ppm) was 4 (41-50). The mortality rating ([8]; 100 ppm) was 8 (81-90), the mortality rating ([8]; 250 ppm) was 7 (71-80) and the mortality rating ([8]; 500 ppm) was 8 (81-90). For the same compound, the mortality rating ([8]; 1000 ppm) was 6 (61-70), the mortality rating ([9]; 250 ppm) was 1 (11-20) and the mortality rating ([9]; 500 ppm) was 1 (11-20). For the same compound, the mortality rating ([9]; 1000 ppm) was 1 (11-20), the mortality rating ([10]; 50 ppm) was 0 (0-10) and the mortality rating ([10]; 100 ppm) was “.5”. For the same compound, the mortality rating ([10]; 250 ppm) was 7 (71-80), the mortality rating ([10]; 500 ppm) was 6.5 and the mortality rating ([10]; 1000 ppm) was 5 (51-60). The mortality rating ([11]; 10 ppm) was 5.5, the mortality rating ([11]; 25 ppm) was 2 (21-30) and the mortality rating ([11]; 50 ppm) was 8 (81-90). The mortality rating ([11]; 100 ppm) was 9 (91-100), the mortality rating ([11]; 250 ppm) was 9 (91-100) and the mortality rating ([11]; 500 ppm) was 9 (91-100). For the same compound, the mortality rating ([11]; 1000 ppm) was 9 (91-100).
With CCCCCCOC(=O)n1c(C(F)(F)F)nc2c([N+](=O)[O-])cc(C(F)(F)F)cc21 [E, n-hexyl 2,6-bis(trifluoromethyl)-4-nitro-1-benzimidazolecarboxylate] the average mortality rating ([1]; 25 ppm) was 4, the average mortality rating ([1]; 50 ppm) was 9 (91-100 percent mortality) and the average mortality rating ([1]; 100 ppm) was 8. For the same compound, the average mortality rating ([2]; 25 ppm) was 0 (0-10 percent), the average mortality rating ([2]; 50 ppm) was 0 (0-10 percent) and the average mortality rating ([2]; 100 ppm) was 8. For the same compound, the average mortality rating ([3]; 10 ppm) was 3, the average mortality rating ([3]; 25 ppm) was 8 and the average mortality rating ([3]; 50 ppm) was 7. The average mortality rating ([4]; 125 ppm) was 0 (0-10 percent), the average mortality rating ([4]; 250 ppm) was 2 and the average mortality rating ([4]; 500 ppm) was 3. The average mortality rating ([4]; 750 ppm) was 6, the average mortality rating ([5]; 10 ppm) was 0 (0-10 percent) and the average mortality rating ([5]; 25 ppm) was 1. For the same compound, the average mortality rating ([5]; 50 ppm) was 0 (0-10 percent), the insect mortality rating ([6]; .15625 μg/μl) was 9 (91-100 percent mortality) and the mortality rating ([7]; 10 ppm) was “.5”. It also gave a mortality rating ([7]; 25 ppm) of 6.5, a mortality rating ([7]; 50 ppm) of 1.5 and a mortality rating ([8]; 5 ppm) of 1.5. For the same compound, the mortality rating ([8]; 100 ppm) was 9.5, the mortality rating ([9]; 500 ppm) was 5.0 and the mortality rating ([9]; 1000 ppm) was 7.5. The mortality rating ([10]; 500 ppm) was 8.5, the mortality rating ([11]; 5 ppm) was “.5” and the mortality rating ([11]; 10 ppm) was 8.5.
For “mixture of benzyl 2,6-bis(trifluoromethyl)-4-nitro-1-benzimidazolecarboxylate and benzyl 2,5-bis(trifluoromethyl)-7-nitro-1-benzimidazolecarboxylate”, the average mortality rating ([1]; 25 ppm) was 4, the average mortality rating ([1]; 50 ppm) was 4 and the average mortality rating ([1]; 100 ppm) was 9 (91-100 percent mortality). The average mortality rating ([2]; 25 ppm) was 0 (0-10 percent), the average mortality rating ([2]; 50 ppm) was 2 and the average mortality rating ([2]; 100 ppm) was 7. For the same compound, the average mortality rating ([3]; 25 ppm) was 9 (91-100 percent mortality), the average mortality rating ([3]; 50 ppm) was 9 (91-100 percent mortality) and the average mortality rating ([5]; 10 ppm) was 0 (0-10 percent). The average mortality rating ([5]; 25 ppm) was 1, the average mortality rating ([5]; 50 ppm) was 2 and the insect mortality rating ([6]; .078125 μg/μl) was 9 (91-100 percent mortality). For the same compound, the mortality rating ([7]; 10 ppm) was 0 (0-10), the mortality rating ([7]; 25 ppm) was 0 (0-10) and the mortality rating ([7]; 50 ppm) was 7 (71-80). The mortality rating ([7]; 250 ppm) was 8 (81-90), the mortality rating ([7]; 500 ppm) was 8.5 and the mortality rating ([7]; 1000 ppm) was 9 (91-100). The mortality rating ([8]; 100 ppm) was 0 (0-10), the mortality rating ([8]; 250 ppm) was 5 (51-60) and the mortality rating ([8]; 500 ppm) was 9 (91-100). The mortality rating ([8]; 1000 ppm) was 8 (81-90), the mortality rating ([9]; 100 ppm) was 2 (21-30) and the mortality rating ([9]; 500 ppm) was 6 (61-70). The mortality rating ([9]; 1000 ppm) was 7 (71-80), the mortality rating ([10]; 50 ppm) was 1.5 and the mortality rating ([10]; 100 ppm) was 3 (31-40). The mortality rating ([10]; 250 ppm) was “.5”, the mortality rating ([10]; 500 ppm) was 1.5 and the mortality rating ([10]; 1000 ppm) was 9 (91-100). The mortality rating ([11]; 10 ppm) was 8 (81-90), the mortality rating ([11]; 25 ppm) was 7 (71-80) and the mortality rating ([11]; 50 ppm) was 9 (91-100). For the same compound, the mortality rating ([11]; 100 ppm) was 9 (91-100), the mortality rating ([11]; 250 ppm) was 9 (91-100) and the mortality rating ([11]; 500 ppm) was 9 (91-100). For the same compound, the mortality rating ([11]; 1000 ppm) was 9 (91-100).
